According to ChEMBL document CHEMBL3822367, “Use of Photosensitizers in Semisolid Formulations for Microbial Photodynamic Inactivation” (2016):

System: Mycobacterium tuberculosis variant bovis BCG
Test: Antimycobacterial activity against Mycobacterium bovis BCG Pasteur ATCC 35734 assessed as cell survival at 5 uM after 1 hr followed by irradiation with light at 60 to 100 J/cm'2
Type: functional, organism-based

Sequence VERTEPORFIN has a Survival of 26%.
